Source: PubChem BioAssay AID179 (DTP/NCI, 2004)
The source made the active and inactive calls.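 Rule for the calls: active = compounds giving half or more protection of infected cells from virus-caused growth loss, again on retest; inactive = the rest.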

System: CEM cells HIV-1 protection, formazan growth assay
Assay: NCI AIDS Antiviral Assay
Conditions: for IC50: measured here: growth of uninfected CEM cells
Procedure, shortened: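 CEM (human) cells, HIV-1 infected vs uninfected, 5-point dosing, formazan growth read-out. Retest threshold 50% protection.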

SMILES	outcome	EC50	IC50
CC(C)OC(=O)Nc1c([N+](=O)[O-])cc(C(F)(F)F)cc1[N+](=O)[O-]	inactive		
C[C@H](CCC1=NCCN1)[C@H]1CC[C@H]2[C@@H]3[C@H](O)C[C@@H]4C[C@H](O)CC[C@]4(C)[C@H]3CC[C@]12C		> 200 µM	24 µM
CN(C)CC1CCCC(CN(C)C)C1OC(=O)c1ccccc1 (stereo unspecified)	inactive		
N#CCc1nc(-c2cc3c(ccc4ccccc43)oc2=O)cs1		> 200 µM	178 µM
COc1c(O)c2c(=O)cc3c4c5c(cc(=O)c6c(O)c(OC)c(CC(C)O)c(c(c1CC(C)O)c24)c65)OCO3 (stereo unspecified)		> 24 µM	0.832 µM
Cc1ccc(NC(=O)CC/C(CC(=O)c2ccc(Cl)cc2)=N\NC(=O)C(=O)NN)cc1C		> 8.32 µM	> 8.32 µM
COc1cc(O)c(C(=O)CC(C)=O)c(OC)c1		> 398 µM	174 µM
CC(C)N(Cc1ccccc1)S(=O)(=O)c1n[nH]c(C(C)(C)C)n1		> 200 µM	> 200 µM
N=c1o[n-][n+](-c2ccccc2)c1-c1ccccc1	inactive		
CC(C)(C)OC(=O)NC(CSCc1ccc(C(=O)c2ccccc2)cc1)C(=O)O (stereo unspecified)		> 200 µM	50.1 µM
O=[N+]([O-])/C(Cl)=C(/C(Cl)=C(Cl)Cl)N1CCOCC1		> 200 µM	8.71 µM
Brc1ccc2c(-c3nc(-c4c[nH]c5ccccc45)cs3)c[nH]c2c1		> 100 µM	6.46 µM
Nc1ccc(S(=O)(=O)Nc2ccccc2)cc1		> 200 µM	> 200 µM
O=[N+]([O-])c1ccc(-n2nc3ccc4nonc4c3n2)cc1		> 200 µM	> 200 µM
O=c1[nH]cnc2[nH]ncc12		> 200 µM	> 200 µM
C=CCC(C(=O)OCC)C1NCCc2c1[nH]c1ccccc21 (stereo unspecified)		> 45.7 µM	> 45.7 µM
Cc1ccc(S(=O)S(=O)c2ccc(C)cc2)cc1 (stereo unspecified)	inactive		
O=C(Cn1c(=O)sc2ccc(Cl)cc21)N1CCN(CCO)CC1		> 200 µM	> 200 µM
O=C1/C(=C\c2ccc(O)cc2)CCC/C1=C/c1ccc(Cl)c(Cl)c1		> 200 µM	1.12 µM
CN(C)C(=O)Oc1c(-c2ccccc2)c(=O)n2c3ccccc3n3c(=O)n(C)c(=O)c1c23		> 1.26 µM	> 1.26 µM
CC(C)CC(C(N)=O)C(=O)NC(Cc1ccccc1)NC(=O)CNC(=O)OC(C)(C)C (stereo unspecified)		> 25.1 µM	> 25.1 µM
CC(C)C(=S)N(C)O		> 18.6 µM	0.302 µM
O=C1CCCSC(=O)N1Cc1ccccc1		> 200 µM	> 200 µM

SMILES	outcome	EC50	IC50
CC(c1ccccc1)N1C(=O)CSC1=S (stereo unspecified)	inactive		
COc1ccc2nc(CC(C)C)c3c(c2c1)-c1ccccc1C3=O		> 11.2 µM	> 11.2 µM
CC1(C)CCSC(/C=C/c2ccccc2)=N1		> 20 µM	4.17 µM
O=C(CC(=O)N1N=C(n2ccc3ccccc32)CC1c1ccccc1)Nc1ccccc1Cl (stereo unspecified)		> 8.32 µM	> 8.32 µM
CCOC(=O)NNC(=O)NC12CC3CC(CC(C3)C1)C2	inactive		
Nc1ccc2cc(S(=O)(=O)O)c(N=Nc3ccc(-c4ccc(N=Nc5c(S(=O)(=O)O)cc6cc(S(=O)(=O)O)c(N=Nc7cccc([N+](=O)[O-])c7)c(N)c6c5O)cc4)cc3)c(O)c2c1	active		
CCCCCCCCCc1c(O)c(O)c(CCCCCCCCC)c(CCCCCCCCC)c1CCCCCCCCC		> 100 µM	16.6 µM
C[C@]12CCC[C@](C)(C(=O)O)[C@@H]1CC[C@@]13C[C@@H](CC[C@@H]12)[C@@H](C(=O)O)C3		> 200 µM	> 200 µM
CC1CC(C2=CC=CCS2)=Nc2ccccc2S1 (stereo unspecified)		> 55 µM	53.7 µM
CCCCCCCCCCCCP(=O)(O)OCC(N)C(=O)O (stereo unspecified)		> 200 µM	83.2 µM
O=C(O)/C=C/c1ccc(/C=C/C(=O)O)cc1		> 200 µM	> 200 µM
COc1ccc2cc1Oc1ccc(cc1)CC1c3c(cc4c(c3Oc3cc5c(cc3OC)CCN(C)C5C2)OCO4)CCN1C (stereo unspecified)	inactive		
O=[N+]([O-])c1ccc(S(=O)(=O)n2c3ccc(Br)cc3c3nc4ccccc4nc32)cc1		> 100 µM	> 100 µM
CC(=O)N1CCC2(C=Nc3ccccc32)CC1		> 22.9 µM	> 22.9 µM
CN(/N=C/C=N/N(C)C1=NCCCN1)C1=NCCCN1		110 µM	> 200 µM
Cc1ccc(C2(C)CCC(C(C)(C)O)OO2)cc1 (stereo unspecified)	inactive		
CCOC(=O)COc1cccc2occc(=O)c12	inactive		
CSC1(SC)CCCCCCCCCCC1		> 200 µM	158 µM
O=C(NC1C=Nc2ccc([N+](=O)[O-])cc2NC1=O)c1ccc(Cl)cc1 (stereo unspecified)		> 200 µM	> 200 µM
N=C(N)c1ccc(N=NNc2ccc(C(=N)N)cc2)cc1 (tested in a mixture with another compound)		> 151 µM	39.8 µM
NC(=O)C12CC3CC(CC(Br)(C3)C1)C2		> 977 µM	891 µM
CN(C)P(CCPc1ccccc1)N(C)C (stereo unspecified)		> 977 µM	> 977 µM
Clc1ccc(CN2COc3c(ccc4cccnc34)C2)c(Cl)c1		> 200 µM	1.45 µM

SMILES	outcome	EC50	IC50
O=C(CCC(=O)Nc1ccc(Cl)cc1)CC(=O)c1ccc2ccccc2c1		> 245 µM	> 245 µM
CC(C)(C)C1CCC2c3c([nH]c4ccccc34)C3C(=O)N(c4cccc(Cl)c4)C(=O)C3C2C1 (stereo unspecified)		> 200 µM	11 µM
[Cl][Pd][Cl].[NH-]CCN1CC1		> 200 µM	12.3 µM
O=C(Nc1cc(C(F)(F)F)ccc1Cl)C(=O)C(C(=O)c1ccc2ccccc2c1)C1OC(=O)c2ccccc21 (stereo unspecified)		> 33.9 µM	18.6 µM
COc1cc(OC)c(/C=C/c2ccncn2)c(OC)c1		> 182 µM	93.3 µM
C[C@@H]1C[C@H]2[C@@H]3CCC4=CC(=O)CC[C@]4(C)[C@@]3(F)[C@@H](O)C[C@]2(C)[C@@]1(C)O		> 200 µM	87.1 µM
CCOC(=O)CC1=NC(=Nc2cc(Cl)ccc2Cl)SC1		> 77.6 µM	> 77.6 µM
CN1C2CCC1CC(C)(O)C2 (stereo unspecified)		> 200 µM	> 200 µM
NCCCCCCNS(=O)(=O)c1cccc2c(Cl)cccc12		> 200 µM	13.5 µM
O=[N+]([O-])c1ccc2c(c1)/C(=N/N=C1c3ccccc3Cc3ccccc31)c1cc([N+](=O)[O-])cc([N+](=O)[O-])c1-2	inactive		
Nc1nc(N)c2c(n1)C(=O)N(Cc1ccccc1)C2	inactive		
CC12OC(=O)C(C(N)=O)=C1C=C(c1ccccc1)CC2c1ccccc1 (stereo unspecified)		> 200 µM	33.1 µM
Oc1ccc(-c2nc(=S)[nH][nH]2)cc1		> 933 µM	72.4 µM
C=C(CCCO)[C@@H]1CC[C@](C)(O)[C@H]1C	inactive		
COc1ccc(OC)c2c1C=CC(Br)=CC2		> 200 µM	53.7 µM
NNC(=O)/C(=C/c1cccc([N+](=O)[O-])c1)NC(=O)c1ccccc1		> 398 µM	> 398 µM
NCCCN1CCN(CCCNc2ccc3nnn4c5ccccc5c(=O)c2c34)CC1		> 100 µM	5.89 µM
COc1ccc(/C=C/C(=O)c2sc(NC(=S)NC(=O)c3ccc(Cl)cc3)nc2C)cc1OC		> 37.2 µM	> 37.2 µM
CCN(CC)C(=O)c1ccc(O)c(OC)c1		> 200 µM	> 200 µM
O=C(Cn1c2ccc(Br)cc2c2nc3ccccc3nc21)NNC(=O)NC1CCCCC1		> 200 µM	182 µM
Cc1nc(-c2cc3cc([N+](=O)[O-])ccc3oc2=O)cs1		> 200 µM	74.1 µM
CC(CO)[C@H]1OC(=O)C=C2[C@@]13O[C@@H]3[C@H]1OC(=O)[C@@]3(C)[C@H]4O[C@H]4C[C@@]2(C)[C@@H]13 (stereo partly specified)		> 2 µM	0.776 µM
Cc1ccc(S(=O)(=O)N/N=C/C(=C/c2ccc(Cl)cc2)CC(/C=N/NS(=O)(=O)c2ccc(C)cc2)=C\c2ccc(Cl)cc2)cc1		> 200 µM	3.89 µM

SMILES	outcome	EC50	IC50
C=C1C(=O)OC(CCCCCCCCCCCCC)C1C(=O)O (stereo unspecified)		> 3.24 µM	> 3.24 µM
COC(=O)C1=C(SC)SC2(C(=O)OC)C3C=C(C)C4C(N13)C42C(=O)OC (stereo unspecified)		> 3.63 µM	> 3.63 µM
Oc1ccccc1-c1nn2c(CCCCCCCCc3nnc4sc(-c5ccccc5O)nn34)nnc2s1		> 200 µM	12 µM
CC(/C=C/C=C/C=C/C=C/C=C/C(O)=C1/C(=O)C(CCC(=O)O)N(C)C1=O)=C\C(C)C(OC1CC(O)C(O)C(C)O1)C(C)C (stereo unspecified)	inactive		
COc1ccc(N)c(CC2c3ccccc3CCN2C)c1 (stereo unspecified)	inactive		
Cc1ccc(NC(=O)CC/C(CC(=O)C(C)(C)C)=N/NC(=O)C[N+](C)(C)C)cc1C		> 209 µM	> 209 µM
CCN(CC)c1ncnc2c1ncn2CCNC(CO)(CO)CO		> 200 µM	> 200 µM
COc1ccc2c(CCNS(=O)(=O)c3ccccc3)c(C(C)=O)[nH]c2c1[N+](=O)[O-]	inactive		
CN1CCCC(CNC2C3CC4CC(C3)CC2C4)C1 (stereo unspecified)		> 138 µM	> 138 µM
CCC(=O)NCC1CCCN2CCCCC12 (stereo unspecified)		> 200 µM	> 200 µM
c1nc2cscc2c2cscc12	inactive		
CSc1n[n+](C)cc(N)c1N		> 200 µM	28.8 µM
COC(=O)C1=C(O)C(C(=O)OC)[C@@]2(O)[C@@H](C(=O)OC)[C@H](C)C[C@@H]1[C@@H]2C(=O)OC (stereo partly specified)		> 200 µM	39.8 µM
CNC(=O)N1CN(c2ccccc2)C2(CCN(CCCC(=O)c3ccc(F)cc3)CC2)C1=O		> 200 µM	10.5 µM
Nc1ncnc2c1ncn2[C@H]1C(CO)[C@@H](CO)C12SCCCS2 (stereo partly specified)		> 191 µM	> 191 µM
Cc1ccnc(NC(=O)Nc2ccccc2Cl)c1		> 200 µM	> 200 µM
CC1(C)OC(=O)C(=Cc2ccc(F)cc2)C(=O)O1		> 525 µM	170 µM
CCOC(=O)NN(C(=O)OCC)c1ccc(N=Nc2ccc(OC)cc2)n1C		> 200 µM	26.9 µM
O=C(O)c1ccccc1/C=C1\Cc2ccccc2C1=O		> 200 µM	120 µM
Cc1cc(S(=O)(=O)Nc2cc(N)[nH]n2)c(SCc2nc(N)nc(N(C)C)n2)cc1Cl		> 200 µM	> 200 µM
